The test system of the experiment is BDF1 mice, Adenocarcinoma 755 s.c., tumor weight T/C. The experiment can be described thus: NCI In Vivo Anticancer Drug Screen. Data for tumor model Adenocarcinoma 755 (subcutaneous) in B6D2F1 (BDF1) mice. As to conditions: endpoint: mean tumor weight, higher = larger tumour. In a few lines: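 In vivo antitumor screen on a transplantable tumor line. Result equals the measure in compound-treated animals divided by the same measure in vehicle controls.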

Where “and” joins values, the source holds several entries; their conditions need not be identical. Identical values can stand only once.

For `Nc1nc(SCc2ccccc2)c2[nH]cnc2n1`, the T/C by setting is: (dose: 0.37 mg/kg/injection, schedule: Q01DX011 (ip), vehicle: carboxymethylcellulose (CMC)) 114 % of control; (dose: 0.37 mg/kg/injection, schedule: Q01DX011 (oral), vehicle: carboxymethylcellulose (CMC)) 71 % of control; (dose: 0.75 mg/kg/injection, schedule: Q01DX011 (ip), vehicle: carboxymethylcellulose (CMC)) 38 % of control; (dose: 0.75 mg/kg/injection, schedule: Q01DX011 (oral), vehicle: carboxymethylcellulose (CMC)) 52 % of control; (dose: 1.0 mg/kg/injection, schedule: Q#A X021 (ip), vehicle: carboxymethylcellulose (CMC)) 45 % of control; (dose: 1.25 mg/kg/injection, schedule: Q01DX011 (ip), vehicle: carboxymethylcellulose (CMC)) 53 % of control. Besides, the T/C is 69 % of control (dose: 1.5 mg/kg/injection, schedule: Q01DX011 (im), vehicle: carboxymethylcellulose (CMC)); 41 % of control (dose: 1.5 mg/kg/injection, schedule: Q01DX011 (ip), vehicle: carboxymethylcellulose (CMC)); 61 % of control (dose: 1.5 mg/kg/injection, schedule: Q01DX011 (oral), vehicle: carboxymethylcellulose (CMC)); 94 % of control and 114 % of control (dose: 1.75 mg/kg/injection, schedule: Q01DX001 (ip), vehicle: carboxymethylcellulose (CMC)); 91 % of control (dose: 2.0 mg/kg/injection, schedule: Q01DX006 (iv), vehicle: carboxymethylcellulose (CMC)); 38 % of control (dose: 2.0 mg/kg/injection, schedule: Q01DX011 (im), vehicle: carboxymethylcellulose (CMC)). Further, the T/C runs as follows: (dose: 2.0 mg/kg/injection, schedule: Q01DX011 (ip), vehicle: carboxymethylcellulose (CMC)) 33 % of control; (dose: 2.0 mg/kg/injection, schedule: Q01DX011 (sc), vehicle: carboxymethylcellulose (CMC)) 56 % of control; (dose: 2.0 mg/kg/injection, schedule: Q#A X021 (ip), vehicle: carboxymethylcellulose (CMC)) 15 % of control; (dose: 2.5 mg/kg/injection, schedule: Q01DX011 (ip), vehicle: carboxymethylcellulose (CMC)) 32 % of control; (dose: 3.0 mg/kg/injection, schedule: Q01DX011 (im), vehicle: carboxymethylcellulose (CMC)) 12 % of control; (dose: 3.0 mg/kg/injection, schedule: Q01DX011 (ip), vehicle: carboxymethylcellulose (CMC)) 5 % of control. Moreover, the T/C by setting is: (dose: 3.0 mg/kg/injection, schedule: Q01DX011 (oral), vehicle: carboxymethylcellulose (CMC)) 19 % of control; (dose: 3.5 mg/kg/injection, schedule: Q01DX001 (ip), vehicle: carboxymethylcellulose (CMC)) 112 % of control and 115 % of control; (dose: 4.0 mg/kg/injection, schedule: Q01DX006 (iv), vehicle: carboxymethylcellulose (CMC)) 40 % of control; (dose: 4.0 mg/kg/injection, schedule: Q01DX011 (im), vehicle: carboxymethylcellulose (CMC)) 10 % of control; (dose: 4.0 mg/kg/injection, schedule: Q01DX011 (ip), vehicle: carboxymethylcellulose (CMC)) 8 % of control; (dose: 4.0 mg/kg/injection, schedule: Q01DX011 (sc), vehicle: carboxymethylcellulose (CMC)) 13 % of control. In addition, the T/C by setting is: (dose: 7.0 mg/kg/injection, schedule: Q01DX001 (ip), vehicle: carboxymethylcellulose (CMC)) 20 % of control and 33 % of control; (dose: 8.0 mg/kg/injection, schedule: Q01DX006 (iv), vehicle: carboxymethylcellulose (CMC)) 13 % of control; (dose: 8.0 mg/kg/injection, schedule: Q01DX011 (im), vehicle: carboxymethylcellulose (CMC)) 3 % of control; (dose: 8.0 mg/kg/injection, schedule: Q01DX011 (ip), vehicle: carboxymethylcellulose (CMC)) 3 % of control; (dose: 8.0 mg/kg/injection, schedule: Q01DX011 (sc), vehicle: carboxymethylcellulose (CMC)) 4 % of control; (dose: 8.0 mg/kg/injection, schedule: Q03DX004 (ip), vehicle: carboxymethylcellulose (CMC)) 25 % of control. The T/C was 34 % of control (dose: 14.0 mg/kg/injection, schedule: Q07DX002 (ip), vehicle: carboxymethylcellulose (CMC)); 7 % of control (dose: 16.0 mg/kg/injection, schedule: Q01DX006 (iv), vehicle: carboxymethylcellulose (CMC)); 2 % of control (dose: 16.0 mg/kg/injection, schedule: Q01DX011 (im), vehicle: carboxymethylcellulose (CMC)); 3 % of control (dose: 16.0 mg/kg/injection, schedule: Q01DX011 (ip), vehicle: carboxymethylcellulose (CMC)); 3 % of control (dose: 16.0 mg/kg/injection, schedule: Q01DX011 (sc), vehicle: carboxymethylcellulose (CMC)); 8 % of control (dose: 16.0 mg/kg/injection, schedule: Q03DX004 (ip), vehicle: carboxymethylcellulose (CMC)). In addition, the T/C is, setting by setting: (dose: 24.0 mg/kg/injection, schedule: Q01DX006 (iv), vehicle: carboxymethylcellulose (CMC)) 4 % of control; (dose: 24.0 mg/kg/injection, schedule: Q01DX011 (im), vehicle: carboxymethylcellulose (CMC)) 4 % of control; (dose: 24.0 mg/kg/injection, schedule: Q01DX011 (ip), vehicle: carboxymethylcellulose (CMC)) 3 % of control; (dose: 24.0 mg/kg/injection, schedule: Q01DX011 (sc), vehicle: carboxymethylcellulose (CMC)) 3 % of control; (dose: 28.0 mg/kg/injection, schedule: Q01DX001 (ip), vehicle: carboxymethylcellulose (CMC)) 12 % of control; (dose: 28.0 mg/kg/injection, schedule: Q07DX002 (ip), vehicle: carboxymethylcellulose (CMC)) 30 % of control. Besides, the T/C is, setting by setting: (dose: 32.0 mg/kg/injection, schedule: Q01DX006 (iv), vehicle: carboxymethylcellulose (CMC)) 5 % of control; (dose: 32.0 mg/kg/injection, schedule: Q01DX011 (im), vehicle: carboxymethylcellulose (CMC)) 3 % of control; (dose: 48.0 mg/kg/injection, schedule: Q01DX011 (sc), vehicle: carboxymethylcellulose (CMC)) 2 % of control; (dose: 56.0 mg/kg/injection, schedule: Q01DX001 (ip), vehicle: carboxymethylcellulose (CMC)) 10 % of control; (dose: 56.0 mg/kg/injection, schedule: Q07DX002 (ip), vehicle: carboxymethylcellulose (CMC)) 18 % of control; (dose: 64.0 mg/kg/injection, schedule: Q01DX011 (sc), vehicle: carboxymethylcellulose (CMC)) 3 % of control. Moreover, the T/C is 10 % of control (dose: 112.0 mg/kg/injection, schedule: Q01DX001 (ip), vehicle: carboxymethylcellulose (CMC)) and 1 % of control (dose: 112.0 mg/kg/injection, schedule: Q07DX002 (ip), vehicle: carboxymethylcellulose (CMC)).

Consider `c1nc(N2CC2)c2cnn(C3CCCCO3)c2n1` (stereo not given), for which the T/C (dose: 1.5 mg/kg/injection, schedule: Q01DX011 (ip), vehicle: other) was 101 % of control; the T/C (dose: 3.0 mg/kg/injection, schedule: Q01DX011 (ip), vehicle: other) was 102 % of control; the T/C (dose: 6.0 mg/kg/injection, schedule: Q01DX011 (ip), vehicle: other) is 81 % of control; the T/C (dose: 12.0 mg/kg/injection, schedule: Q01DX011 (ip), vehicle: other) was 99 % of control; the T/C (dose: 12.5 mg/kg/injection, schedule: Q01DX011 (ip), vehicle: saline) is 30 % of control; the T/C (dose: 25.0 mg/kg/injection, schedule: Q01DX011 (ip), vehicle: other) is 113 % of control. Moreover, the T/C (dose: 25.0 mg/kg/injection, schedule: Q01DX011 (ip), vehicle: saline) was 45 % of control.

For `C=CCOP(=O)(N1CC1CC)N1CC1CC` (stereo not given), the T/C is, setting by setting: (dose: 17.0 mg/kg/injection, schedule: Q01DX011 (ip), vehicle: saline) 69 % of control; (dose: 33.0 mg/kg/injection, schedule: Q01DX011 (ip), vehicle: saline) 50 % of control; (dose: 66.0 mg/kg/injection, schedule: Q01DX011 (ip), vehicle: saline) 18 % of control.

Values taken from PubChem BioAssay AID180 (DTP/NCI, 2004).
